Reference: US11052092B2, “N-{[2-(piperidin-1-yl)phenyl](phenyl)methyl}-2-(3-oxo-3,4-dihydro-2H-1,4-benzoxazin-7-yl)acetamide derivatives and related compounds as ROR-gamma modulators for treating autoimmune diseases” (Genfit, priority 2017, dated 2021)
Counter-ions that a name gives are not always drawn.

melting point [°C] | SMILES
97 | Cc1ccc(C(NC(=O)C2(c3ccc4c(c3)CS(=O)(=O)N4)CC2)c2ccc(C)o2)c(C)c1 (centres unmarked) (as salt: HCl) [Cpd. 63, N-[(2,4-dimethylphenyl)(5-methylfuran-2-yl)methyl]-1-(2,2-dioxo-1,3-dihydro-2,1-benzothiazol-5-yl)cyclopropane-1-carboxamide]
68 | Cc1ccc(C(NC(=O)Cc2ccc3[nH]cc(C)c3c2)c2ccc(C)o2)c(N2CCCCC2)c1 (centres unmarked) (as salt: HCl) [Cpd. 64, 2-(3-methyl-1H-indol-5-yl)-N-{[4-methyl-2-(piperidin-1-yl)phenyl](5-methylfuran-2-yl)methyl}acetamide]
67 | Cc1ccc(C(NC(=O)C2(c3ccc4c(c3)CN(S(C)(=O)=O)C4)CC2)c2ccc(C)o2)c(C)c1 (centres unmarked) (as salt: HCl) [Cpd. 65, N-[(2,4-dimethylphenyl)(5-methylfuran-2-yl)methyl]-1-(2-methanesulfonyl-2,3-dihydro-1H-isoindol-5-yl)cyclopropane-1-carboxamide]
95 | Cc1ccc(C(NC(=O)C2(c3ccc4[nH]cc(CCO)c4c3)CC2)c2ccc(C)o2)c(N2CCCCC2)c1 (centres unmarked) (as salt: HCl) [Cpd. 66, 1-[3-(2-hydroxyethyl)-1H-indol-5-yl]-N-{[4-methyl-2-(piperidin-1-yl)phenyl](5-methylfuran-2-yl)methyl}cyclopropane-1-carboxamide]
71 | Cc1ccc(C(NC(=O)Cc2ccc3c(c2)C(=O)CC3)c2ccc(C)o2)c(N2CCCCC2)c1 (centres unmarked) (as salt: HCl) [Cpd. 67, N-{[4-methyl-2-(piperidin-1-yl)phenyl](5-methylfuran-2-yl)methyl}-2-(3-oxo-2,3-dihydro-1H-inden-5-yl)acetamide]
92 | Cc1ccc(C(NC(=O)Cc2ccc3c(c2)CS(=O)(=O)N3CC2CCOCC2)c2ccc(C)o2)c(Br)c1 (centres unmarked) (as salt: HCl) [Cpd. 68, N-[(2-bromo-4-methylphenyl)(5-methylfuran-2-yl)methyl]-2-[1-(oxan-4-ylmethyl)-2,2-dioxo-1,3-dihydro-2,1-benzothiazol-5-yl]acetamide]
70 | Cc1ccc(C(NC(=O)C2(c3ccc4c(c3)CS(=O)(=O)N4C)CC2)c2ccc(C)o2)c(C)c1 (centres unmarked) (as salt: HCl) [Cpd. 70, N-[(2,4-dimethylphenyl)(5-methylfuran-2-yl)methyl]-1-(1-methyl-2,2-dioxo-1,3-dihydro-2,1-benzothiazol-5-yl)cyclopropane-1-carboxamide]
107 | Cc1ccc(C(NC(=O)C2(c3ccc4c(c3)CS(=O)(=O)N4)CC2)c2ccc(C)o2)c(N(C)C)c1 (centres unmarked) (as salt: HCl) [Cpd. 71, N-{[2-(dimethylamino)-4-methylphenyl](5-methylfuran-2-yl)methyl}-1-(2,2-dioxo-1,3-dihydro-2,1-benzothiazol-5-yl)cyclopropane-1-carboxamide]
80 | Cc1ccc(C(NC(=O)C2(c3ccc4c(c3)CS(=O)(=O)C4)CC2)c2ccc(Cl)o2)c(C)c1 (centres unmarked) (as salt: HCl) [Cpd. 72, N-[(5-chlorofuran-2-yl)(2,4-dimethylphenyl)methyl]-1-(2,2-dioxo-1,3-dihydro-2-benzothiophen-5-yl)cyclopropane-1-carboxamide]
84 | Cc1ccc(C(NC(=O)C2(c3ccc4c(c3)CN(S(C)(=O)=O)C4)CC2)c2ccc(C)o2)c(N2CCCC2)c1 (centres unmarked) (as salt: HCl) [Cpd. 73, 1-(2-methanesulfonyl-2,3-dihydro-1H-isoindol-5-yl)-N-{[4-methyl-2-(pyrrolidin-1-yl)phenyl](5-methylfuran-2-yl)methyl}cyclopropane-1-carboxamide]
74 | Cc1ccc(C(NC(=O)C2(c3ccc4c(c3)CS(=O)(=O)C4)CC2)c2ccc(C)o2)c(C)c1 (centres unmarked) (as salt: HCl) [Cpd. 74, N-[(2,4-dimethylphenyl)(5-methylfuran-2-yl)methyl]-1-(2,2-dioxo-1,3-dihydro-2-benzothiophen-5-yl)cyclopropane-1-carboxamide]
70 | Cc1ccc(C(NC(=O)C2(c3ccc4c(c3)CN(S(C)(=O)=O)C4)CC2)c2ccc(C)o2)c(N(C)C)c1 (centres unmarked) (as salt: HCl) [Cpd. 76, N-{[2-(dimethylamino)-4-methylphenyl](5-methylfuran-2-yl)methyl}-1-(2-methanesulfonyl-2,3-dihydro-1H-isoindol-5-yl)cyclopropane-1-carboxamide]
209 | Cc1ccc(C(NC(=O)Cc2ccc3[nH]c(C)nc3c2)c2ccc(C)o2)c(Br)c1 (centres unmarked) (as salt: HCl) [Cpd. 77, N-[(2-bromo-4-methylphenyl)(5-methylfuran-2-yl)methyl]-2-(2-methyl-1H-1,3-benzodiazol-5-yl)acetamide]
87 | Cc1ccc(C(NC(=O)Cc2ccc3c(c2)CS(=O)(=O)C3)c2ccc(C)o2)c(N2CCCCC2)c1 (centres unmarked) (as salt: HCl) [Cpd. 78, 2-(2,2-dioxo-1,3-dihydro-2-benzothiophen-5-yl)-N-{[4-methyl-2-(piperidin-1-yl)phenyl](5-methylfuran-2-yl)methyl}acetamide]
143 | Cc1ccc(C(NC(=O)Cc2ccc3c(c2)CN(S(C)(=O)=O)C3)c2ccc(Cl)o2)c(N2CCCCC2)c1 (centres unmarked) (as salt: HCl) [Cpd. 79, N-[(5-chlorofuran-2-yl)[4-methyl-2-(piperidin-1-yl)phenyl]methyl]-2-(2-methanesulfonyl-2,3-dihydro-1H-isoindol-5-yl)acetamide]
82 | Cc1ccc(C(NC(=O)C2(c3ccc4c(c3)CN(S(C)(=O)=O)C4)CC2)c2ccc(Cl)o2)c(N2CCCC2)c1 (centres unmarked) (as salt: HCl) [Cpd. 80, N-[(5-chlorofuran-2-yl)[4-methyl-2-(pyrrolidin-1-yl)phenyl]methyl]-1-(2-methanesulfonyl-2,3-dihydro-1H-isoindol-5-yl)cyclopropane-1-carboxamide]
132 | Cc1ccc(C(NC(=O)Cc2ccc3[nH]c(C)nc3c2)c2ccccc2)c(N2CCCC2)c1 (centres unmarked) (as salt: HCl) [Cpd. 82, 2-(2-methyl-1H-1,3-benzodiazol-5-yl)-N-{[4-methyl-2-(pyrrolidin-1-yl)phenyl](phenyl)methyl}acetamide]
105 | Cc1ccc(C(NC(=O)Cc2ccc3c(c2)CC(=O)N3)c2ccc(Cl)o2)c(N2CCCCC2)c1 (centres unmarked) (as salt: HCl) [Cpd. 83, N-[(5-chlorofuran-2-yl)[4-methyl-2-(piperidin-1-yl)phenyl]methyl]-2-(2-oxo-2,3-dihydro-1H-indol-5-yl)acetamide]
78 | Cc1ccc(C(NC(=O)C2(c3ccc4c(c3)CC(=O)N4)CC2)c2ccc(Cl)o2)c(C)c1 (centres unmarked) (as salt: HCl) [Cpd. 86, N-[(5-chlorofuran-2-yl)(2,4-dimethylphenyl)methyl]-1-(2-oxo-2,3-dihydro-1H-indol-5-yl)cyclopropane-1-carboxamide]
86 | Cc1ccc(C(NC(=O)C2(c3ccc4c(c3)CS(=O)(=O)N4)CC2)c2ccc(Cl)o2)c(C)c1 (centres unmarked) (as salt: HCl) [Cpd. 87, N-[(5-chlorofuran-2-yl)(2,4-dimethylphenyl)methyl]-1-(2,2-dioxo-1,3-dihydro-2,1-benzothiazol-5-yl)cyclopropane-1-carboxamide]
189 | CCOc1nc2cc(CC(=O)NC(c3ccccc3)c3ccc(C)cc3Br)ccc2[nH]1 (centres unmarked) (as salt: HCl) [Cpd. 90, N-[(2-bromo-4-methylphenyl)(phenyl)methyl]-2-(2-ethoxy-1H-1,3-benzodiazol-5-yl)acetamide]
134 | CSc1ccc2cc(CC(=O)NC(c3ccc(C)o3)c3ccc(C)cc3N3CCCCC3)ccc2c1 (centres unmarked) (as salt: HCl) [Cpd. 91, N-{[4-methyl-2-(piperidin-1-yl)phenyl](5-methylfuran-2-yl)methyl}-2-[6-(methylsulfanyl)naphthalen-2-yl]acetamide]
125 | Cc1ccc(C(NC(=O)Cc2ccc3[nH]c(N4CCOCC4)nc3c2)c2ccc(C)o2)c(N2CCCCC2)c1 (centres unmarked) (as salt: HCl) [Cpd. 93, N-{[4-methyl-2-(piperidin-1-yl)phenyl](5-methylfuran-2-yl)methyl}-2-[2-(morpholin-4-yl)-1H-1,3-benzodiazol-5-yl]acetamide]
70 | Cc1ccc(C(NC(=O)C2(c3ccc4c(c3)CCN4C(=O)C3CC3)CC2)c2ccc(C)o2)c(C)c1 (centres unmarked) (as salt: HCl) [Cpd. 95, 1-(1-cyclopropanecarbonyl-2,3-dihydro-1H-indol-5-yl)-N-[(2,4-dimethylphenyl)(5-methylfuran-2-yl)methyl]cyclopropane-1-carboxamide]
50 | Cc1ccc(C(NC(=O)Cc2ccc3c(ccn3CCC(=O)OC(C)(C)C)c2)c2ccc(C)o2)c(N2CCCCC2)c1 (centres unmarked) (as salt: HCl) [Cpd. 96, tert-butyl 3-{5-[({[4-methyl-2-(piperidin-1-yl)phenyl](5-methylfuran-2-yl)methyl}carbamoyl)methyl]-1H-indol-1-yl}propanoate]
107 | Cc1ccc(C(NC(=O)Cc2ccc3[nH]cc(CCS(C)(=O)=O)c3c2)c2ccc(C)o2)c(N2CCCCC2)c1 (centres unmarked) (as salt: HCl) [Cpd. 98, 2-[3-(2-methanesulfonylethyl)-1H-indol-5-yl]-N-{[4-methyl-2-(piperidin-1-yl)phenyl](5-methylfuran-2-yl)methyl}acetamide]
39 | Cc1ccc(C(NC(=O)Cc2ccc3c(ccn3CCC(=O)OC(C)(C)C)c2)c2ccc(C)o2)c(C)c1 (centres unmarked) (as salt: HCl) [Cpd. 99, tert-butyl 3-[5-({[(2,4-dimethylphenyl)(5-methylfuran-2-yl)methyl]carbamoyl}methyl)-1H-indol-1-yl]propanoate]
149 | Cc1ccc(C(NC(=O)Cc2ccc3c(ccn3CCC(=O)OC(C)(C)C)c2)c2ccc(C)o2)c(Br)c1 (centres unmarked) (as salt: HCl) [Cpd. 100, tert-butyl 3-[5-({[(2-bromo-4-methylphenyl)(5-methylfuran-2-yl)methyl]carbamoyl}methyl)-1H-indol-1-yl]propanoate]
139 | Cc1ccc(C(NC(=O)Cc2ccc3[nH]cc(C(=O)CS(C)(=O)=O)c3c2)c2ccc(C)o2)c(N2CCCCC2)c1 (centres unmarked) (as salt: HCl) [Cpd. 103, 2-[3-(2-methanesulfonylacetyl)-1H-indol-5-yl]-N-{[4-methyl-2-(piperidin-1-yl)phenyl](5-methylfuran-2-yl)methyl}acetamide]
